From patent US8940728B2 (priority 2012, dated 2015) come the findings set out here.

Like-named read-outs stand apart in the source and are kept apart here.

For series [1], the target named is T1, a3b4 nAChRs (Homo sapiens, UniProt P30926+P32297). In words: FLIPR Ca+2 flux assay, epibatidine-induced calcium response, SH-SYSY cells. Type of series: cell-based. The procedure:
(§1) The HEK293 (a3b4, a4b2 and a7) and SH-SYSY cell lines (a3b4) expressing nAChRs are used. Validated assays optimized with respect to sensitivity, dynamic range, signal intensity and stability for chemical probe validation and SAR refinement are used.
(§2) Nicotinic functional assays are performed using the Molecular Devices FLIPR® Calcium 5 Assay Kit. HEK293 cells overexpressing α3β4, α4β2 or α7 (50,000 cells per well in 100 μl growth media) and are plated in clear bottom black walled 96-well microplates and incubated for 24-48 hours at 37° C., 5% CO2 until a 80-90% confluent monolayer is formed. On the day of the assay, 100 μl of Calcium 5 Dye is added to each well. Following addition of dye, cells are incubated at 25° C. for 60 minutes. Following dye loading, 50 μl of a 5× solution of reference or test compound of appropriate concentration range (0.01-30 μM), prepared in 20 mM HEPES pH 7.4 in HBSS, is added to each well. Plates are then transferred to the Molecular Devices Flexstation® which transfers 50 μL of a 5× solution (500 nM) of epibatine to each well to initiate the Ca+2 flux. […] The RFU (relative fluorescence units) in the presence of the test or reference compounds is then expressed on the percent scale. The percent inhibition of epibatidine induced Ca^+2 flux is calculated as follows: % inhibition=100%−% RFU (relative fluorescence units). […]

A short description of series [2]: CNS penetration across the brain blood barrier. Particulars: in vivo. The procedure: Mice are dosed with compounds. Brain to blood ratios are determined by HPLC and LC/MS/MS analysis following oral administration of the test compounds in mice.
Series [3] concerns the target T1, a3b4 nAChRs. The experiment in a line: Relative potency on epibatidine-induced calcium response at a3b4 nAChRs. The class given is cell-based. The procedure: as §1
Nicotinic functional assays are performed using the Molecular Devices FLIPR® Calcium 5 Assay Kit. HEK293 cells overexpressing α3β4, α4β2 or α7 (50,000 cells per well in 100 μl growth media) and are plated in clear bottom black walled 96-well microplates and incubated for 24-48 hours at 37° C., 5% CO2 until a 80-90% confluent monolayer is formed. On the day of the assay, 100 μl of Calcium 5 Dye is added to each well. Following addition of dye, cells are incubated at 25° C. for 60 minutes. Following dye loading, 50 μl of a 5× solution of reference or test compound of appropriate concentration range (0.01-30 μM), prepared in 20 mM HEPES pH 7.4 in HBSS, is added to each well. Plates are then transferred to the Molecular Devices Flexstation® which transfers 50 μL of a 5× solution (500 nM) of epibatine to each well to initiate the Ca+2 flux. Additional wells (in quadruplicate) are prepared with no added test or reference ligand for measurement of 100% flux. The RFU (relative fluorescence units) in the presence of the test or reference compounds is then expressed on the percent scale. The percent inhibition of epibatidine induced Ca^+2 flux is calculated as follows: % inhibition=100%−% RFU (relative fluorescence units). The IC50 values for reference and test compounds are obtained by fitting normalized RFU data using Graphpad Prism software.

Series [4] deals with T2, α3β4 nicotinic receptor subtype (Homo sapiens, UniProt P30926+P32297).
T2 construct: SH-SYSY cells predominantly express the α3β4 nicotinic receptor subtype; endogenous in cells; host or cells: SH-SYSY (SH-SY5Y) cells
In words: cell-based.
Excerpt: as §1

Series [5] is described as follows: Binding panel of over 50 receptors, transporters, ion channels, second messengers, growth factor receptors and enzymes. The settings on record: at physiologically relevant concentrations. The source says:
The association between cigarette smoking and the presence and severity of suicidal behavior across major psychiatric disorders may be related to lower brain serotonin function in smokers with depression).

Series [6] concerns the target T3, kappa opioid receptor (kOR) (Homo sapiens, UniProt P41145).
T3 construct: expressed in transfected cells; host or cells: CHO or HEK293
The experiment in a line: Kappa opioid receptor radioligand binding. As to the method: (§3) Established radioligand binding methods are used to evaluate the ability of the compounds to block reuptake of serotonin and dopamine in membrane preparations of synaptosomes. Equilibrium binding affinity values is determined for each compound at opioid receptors (μ and κ subtypes) and biogenic amine transporters (DAT and SERT). Where possible, binding experiments utilize membranes derived from CHO or HEK293 cells engineered to overexpress the human form of the receptor or transporter of interest. Radiolabeling of opioid receptors, and biogenic amine transporters utilizes conventional radioligands, buffers and incubation conditions according to published assays.
(§4) Test compounds, reference compounds and the radioligand (Kd value) are added to binding buffer. Assays are run with test or reference compound over a range of concentration (0.0001-10 uM) in triplicate using a 96-well sample plate containing radioligands specific for the target receptor or transporter. […] Bound radioactivity is counted in a Microbeta scintillation counter. Total bound radioactivity is estimated from triplicate wells containing no test or reference compound, together with nonspecific binding and filter blanks. The average bound radioactivity in the presence of the test compounds is expressed % inhibition=100%−% radioactivity bound. […]

Series [7] has as its target T1, a3b4 nAChRs. In words: FLIPR Ca+2 flux assay, epibatidine-induced calcium response, A3B4-HEK cells. Type of series: cell-based. The procedure: as §1, §2
In the next series the target is 5-HT transporter (Homo sapiens, UniProt P31645). The experiment in a line: 5-HT transporter radioligand binding. The procedure: as §3, §4
For the next series, the target named is T4, mu opioid receptor (mOR) (Homo sapiens, UniProt P35372).
T4 construct: expressed in transfected cells; host or cells: CHO or HEK293
In words: Mu opioid receptor radioligand binding. As to the method: as §3, §4

T2 sequence (P32297 32-505): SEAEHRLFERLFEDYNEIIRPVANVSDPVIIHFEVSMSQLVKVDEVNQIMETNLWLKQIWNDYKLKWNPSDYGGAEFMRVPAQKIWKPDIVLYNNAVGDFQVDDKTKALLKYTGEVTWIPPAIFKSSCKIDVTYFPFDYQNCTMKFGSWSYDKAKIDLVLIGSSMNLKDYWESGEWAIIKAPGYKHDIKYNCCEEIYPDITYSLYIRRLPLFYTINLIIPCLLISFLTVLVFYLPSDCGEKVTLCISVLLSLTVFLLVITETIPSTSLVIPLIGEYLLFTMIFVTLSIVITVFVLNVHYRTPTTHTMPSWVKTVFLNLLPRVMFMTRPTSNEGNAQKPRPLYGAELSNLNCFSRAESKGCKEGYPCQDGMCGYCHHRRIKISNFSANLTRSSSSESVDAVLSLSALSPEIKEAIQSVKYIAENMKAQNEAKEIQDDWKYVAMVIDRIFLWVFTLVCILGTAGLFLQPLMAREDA
T2 sequence (P30926 22-498): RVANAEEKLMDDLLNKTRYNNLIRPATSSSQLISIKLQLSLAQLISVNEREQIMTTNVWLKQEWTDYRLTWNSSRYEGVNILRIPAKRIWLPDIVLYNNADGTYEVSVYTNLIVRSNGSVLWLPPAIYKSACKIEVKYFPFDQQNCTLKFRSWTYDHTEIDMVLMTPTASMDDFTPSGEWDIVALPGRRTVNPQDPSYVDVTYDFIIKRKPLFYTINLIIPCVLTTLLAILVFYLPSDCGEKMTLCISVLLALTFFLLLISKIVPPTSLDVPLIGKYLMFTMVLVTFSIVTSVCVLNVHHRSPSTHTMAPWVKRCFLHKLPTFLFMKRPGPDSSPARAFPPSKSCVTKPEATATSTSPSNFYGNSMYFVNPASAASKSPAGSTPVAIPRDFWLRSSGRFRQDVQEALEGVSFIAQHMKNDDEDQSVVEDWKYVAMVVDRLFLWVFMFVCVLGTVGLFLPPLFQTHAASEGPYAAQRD
T1 sequence (P30926 22-498): as above
T1 sequence (P32297 32-505): as the sequence (P32297 32-505) above
Chain of 5-HT transporter (P31645 whole entry): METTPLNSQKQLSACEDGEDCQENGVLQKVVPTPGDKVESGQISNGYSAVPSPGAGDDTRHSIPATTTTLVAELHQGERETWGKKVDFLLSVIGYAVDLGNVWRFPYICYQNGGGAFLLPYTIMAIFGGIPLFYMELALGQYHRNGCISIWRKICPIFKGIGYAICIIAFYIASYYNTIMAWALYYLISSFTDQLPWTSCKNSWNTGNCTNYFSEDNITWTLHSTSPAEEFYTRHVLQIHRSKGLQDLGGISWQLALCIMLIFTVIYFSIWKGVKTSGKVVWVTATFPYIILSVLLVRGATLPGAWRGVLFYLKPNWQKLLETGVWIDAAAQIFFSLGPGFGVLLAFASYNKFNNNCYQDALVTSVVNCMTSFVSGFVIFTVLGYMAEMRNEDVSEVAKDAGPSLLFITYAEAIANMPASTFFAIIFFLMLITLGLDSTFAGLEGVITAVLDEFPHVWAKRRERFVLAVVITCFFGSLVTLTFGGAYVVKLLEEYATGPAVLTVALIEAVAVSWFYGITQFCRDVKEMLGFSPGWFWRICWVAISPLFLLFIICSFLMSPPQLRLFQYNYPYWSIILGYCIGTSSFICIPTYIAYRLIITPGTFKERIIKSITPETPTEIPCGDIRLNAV
T3 sequence (P41145 whole entry): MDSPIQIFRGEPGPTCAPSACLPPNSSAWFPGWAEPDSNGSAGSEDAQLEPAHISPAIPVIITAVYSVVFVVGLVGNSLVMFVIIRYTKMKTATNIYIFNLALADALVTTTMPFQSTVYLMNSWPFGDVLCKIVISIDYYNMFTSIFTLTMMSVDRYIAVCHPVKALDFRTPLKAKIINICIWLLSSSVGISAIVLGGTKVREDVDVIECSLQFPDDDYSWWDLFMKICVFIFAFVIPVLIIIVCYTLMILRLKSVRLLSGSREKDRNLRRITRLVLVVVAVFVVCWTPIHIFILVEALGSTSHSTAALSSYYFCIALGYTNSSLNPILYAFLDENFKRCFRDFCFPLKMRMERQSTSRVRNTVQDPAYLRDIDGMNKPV
T4 sequence (P35372 whole entry): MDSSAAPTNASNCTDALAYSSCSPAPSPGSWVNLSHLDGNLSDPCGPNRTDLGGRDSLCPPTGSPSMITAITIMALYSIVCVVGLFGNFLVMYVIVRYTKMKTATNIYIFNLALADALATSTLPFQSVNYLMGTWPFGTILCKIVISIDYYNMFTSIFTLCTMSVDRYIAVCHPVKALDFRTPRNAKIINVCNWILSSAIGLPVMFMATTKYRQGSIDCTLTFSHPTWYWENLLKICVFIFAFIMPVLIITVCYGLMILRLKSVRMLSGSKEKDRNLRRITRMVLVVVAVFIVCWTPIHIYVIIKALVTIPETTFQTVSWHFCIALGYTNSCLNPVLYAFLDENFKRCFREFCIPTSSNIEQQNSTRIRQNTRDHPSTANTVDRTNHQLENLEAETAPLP

Take `COCC[C@H]1CC2CN3CCc4c([nH]c5ccccc45)[C@](C(=O)OC)(C2)[C@H]13` [Compound 18-MC, 18-methoxycoronaridine]: the IC50 turned out to be 3.9 µM on a3b4 nAChRs [1] (SH-SYSY cells, read-out: IC50 (uM) SH-SYSY, inhibition of epibatidine-induced calcium response); 4 µM on a3b4 nAChRs [3] (reference value for the ratios of Table 4, read-out: Potency of 18-MC at a3b4 nAChRs taken as reference); 3.9 µM in series [4] (Caliper, read-out: IC50 (uM) Caliper, inhibition of epibatidine-induced calcium response); 3.89 µM in [4] (SH-SYSY cells, preliminary studies by Caliper Life Sciences, read-out: IC50 as antagonist for epibatine induced Ca+2 flux). In addition, in series [2], the “Crossing of the BBB and concentration in brain” value was “cross the BBB and reach micromolar concentrations in brain”. In addition, the “Ratio from 18-MC (relative potency at a3b4 nAChRs)” value at a3b4 nAChRs [3] (relative to 18-MC = 1 (4 uM)) amounted to 1.

On to `CC[C@H]1CC2C[C@H]3c4[nH]c5ccc(O)cc5c4CCN(C2)C13` [Noribogaine, 12-hydroxyibogamine], for which the “Targets bound in the panel” value in series [5] is “only bound to SERT, DAT, mu and kappa opioid receptors”. In addition, the “Affinity at kappa opioid receptors” value in series [6] was 1 µM. The IC50 on a3b4 nAChRs [7] is 18 µM; on a3b4 nAChRs [1] it was 0.3 µM; in series [4] (IC50 (uM) Caliper, inhibition of epibatidine-induced calcium response, Caliper) it was 1 µM; in series [4] (IC50 as antagonist for epibatine induced Ca+2 flux, SH-SYSY cells, preliminary studies by Caliper Life Sciences) it was 0.462 µM. On 5-HT transporter, the “Affinity to the 5-HT transporter” value is reported as 50 nM. Also, the “Affinity at mu opioid receptors” value at mu opioid receptor (mOR) is given as 900 nM. Further, the “Crossing of the BBB and concentration in brain” value in [2] is “cross the BBB and reach micromolar concentrations in brain”.

For the compound Ibogaine, the “Potency as inhibitor of epibatidine-induced calcium response compared with 18-MC and noribogaine” value at a3b4 nAChRs [3] (in words) is given as “more potent inhibitors than 18-MC”.
